From ChEMBL document CHEMBL1144655, “Potent and selective isophthalamide S2 hydroxyethylamine inhibitors of BACE1” (Bioorg Med Chem Lett, 2007)

Legend:
Cathepsin D = Cathepsin D (Homo sapiens, UniProt P07339); assay: Inhibition of cathepsin D
Beta-secretase 1 = Beta-secretase 1 (Homo sapiens, UniProt P56817); assay: Inhibition of BACE1
Beta-secretase 1, sequence (P56817 whole entry): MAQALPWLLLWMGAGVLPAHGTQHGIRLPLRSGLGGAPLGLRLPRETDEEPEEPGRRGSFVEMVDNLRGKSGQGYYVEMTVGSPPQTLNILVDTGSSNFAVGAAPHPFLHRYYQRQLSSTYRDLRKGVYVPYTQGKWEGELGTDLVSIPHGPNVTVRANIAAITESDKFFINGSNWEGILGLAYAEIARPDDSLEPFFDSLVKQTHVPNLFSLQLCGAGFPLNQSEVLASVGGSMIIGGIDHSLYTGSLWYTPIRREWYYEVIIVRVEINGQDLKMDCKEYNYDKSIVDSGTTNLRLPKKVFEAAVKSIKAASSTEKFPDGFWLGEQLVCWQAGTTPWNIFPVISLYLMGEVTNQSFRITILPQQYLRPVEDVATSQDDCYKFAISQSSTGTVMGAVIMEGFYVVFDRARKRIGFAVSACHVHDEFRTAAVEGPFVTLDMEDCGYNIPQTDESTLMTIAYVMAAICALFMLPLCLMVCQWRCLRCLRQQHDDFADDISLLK

Cathepsin D, sequence (P07339 65-162 limits assumed): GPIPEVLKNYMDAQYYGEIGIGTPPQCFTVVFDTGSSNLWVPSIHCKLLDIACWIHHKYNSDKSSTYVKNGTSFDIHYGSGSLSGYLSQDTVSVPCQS
Cathepsin D, sequence (P07339 169-412 limits assumed): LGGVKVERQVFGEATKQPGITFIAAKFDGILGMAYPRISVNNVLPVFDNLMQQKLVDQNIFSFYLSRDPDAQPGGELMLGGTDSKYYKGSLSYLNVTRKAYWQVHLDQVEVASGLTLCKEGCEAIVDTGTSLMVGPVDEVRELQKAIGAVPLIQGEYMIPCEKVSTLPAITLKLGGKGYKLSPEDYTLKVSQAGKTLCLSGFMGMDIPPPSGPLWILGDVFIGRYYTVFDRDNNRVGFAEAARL

Compound	IC50 (Cathepsin D)	IC50 (Beta-secretase 1)
CCCN(CCC)C(=O)c1cc(C)cc(C(=O)N[C@@H](Cc2cc(F)cc(F)c2)[C@H](O)CNCc2cccc(CC)c2)c1	150 nM	2 nM
CCCN(CCC)C(=O)c1cc(C#N)cc(C(=O)N[C@@H](Cc2ccccc2)[C@H](O)CNCc2cccc(OC)c2)c1	660 nM	90 nM
CCCN(CCC)C(=O)c1cc(CC#N)cc(C(=O)N[C@@H](Cc2ccccc2)[C@H](O)CNCc2cccc(OC)c2)c1	570 nM	360 nM
CCCN(CCC)C(=O)c1cc(C(N)=O)cc(C(=O)N[C@@H](Cc2ccc(O)cc2)[C@H](O)CNCc2cccc(OC)c2)c1	> 20000 nM	300 nM
CCCN(CCC)C(=O)c1cc(C(=O)O)cc(C(=O)N[C@@H](Cc2ccccc2)[C@H](O)CNCc2cccc(OC)c2)c1	3600 nM	30 nM
CCCN(CCC)C(=O)c1cc(C)cc(C(=O)N[C@@H](Cc2ccccc2)[C@H](O)CNCc2cccc(OC)c2)c1	450 nM	100 nM

Continued, values first:

IC50 (Cathepsin D)	IC50 (Beta-secretase 1)	Compound
2400 nM		CCCN(CCC)C(=O)c1cc(C(N)=O)cc(C(=O)N[C@@H](Cc2cc(F)cc(F)c2)[C@H](O)CNCc2cccc(OC)c2)c1
> 20000 nM	1900 nM	CCCNC(=O)c1cc(C(N)=O)cc(C(=O)N[C@@H](Cc2ccccc2)[C@H](O)CNCc2cccc(OC)c2)c1
866 nM	132 nM	CCCN(CCC)C(=O)c1cc(C(=O)N[C@@H](Cc2ccccc2)[C@H](O)CNCc2cccc(OC)c2)cc(C(=O)OCC)c1
3800 nM	70 nM	CCCN(CCC)C(=O)c1cc(C(=O)N[C@@H](Cc2ccccc2)[C@H](O)CNCc2cccc(OC)c2)cc(C(=O)N(C)C)c1
3600 nM	250 nM	CCCN(CCC)C(=O)c1cc(C(=O)N[C@@H](Cc2ccccc2)[C@H](O)CNCc2cccc(OC)c2)cc(C(=O)N(CCC)CCC)c1
1600 nM	5 nM	CCCN(CCC)C(=O)c1cc(C(N)=O)cc(C(=O)N[C@@H](Cc2cc(F)cc(F)c2)[C@H](O)CNCc2cccc(CC)c2)c1
> 20000 nM	770 nM	CCCNC(=O)c1cc(C#N)cc(C(=O)N[C@@H](Cc2ccccc2)[C@H](O)CNCc2cccc(OC)c2)c1
2800 nM	100 nM	CCCN(CCC)C(=O)c1cc(C(N)=O)cc(C(=O)N[C@@H](Cc2ccccc2)[C@H](O)CNCc2cccc(OC)c2)c1
